Laboratory results: paper PMC4552634, “A New Set of Chemical Starting Points with Plasmodium falciparum Transmission-Blocking Potential for Antimalarial Drug Discovery” (PLoS ONE, 2015)
Like-named read-outs stand apart in the source and are kept apart here.

Tests used:
[1] = tested on: KCa2.2, a calcium-dependent K+ channel; set-up: method as in TCAMS annotation; conditions: target annotation in TCAMS; ref TCAMS annotation; cited from earlier work
[2] = tested on: P. falciparum asexual stages; conditions: TCAMS data, cited from earlier work
[3] = tested on: P. falciparum stage V gametocytes; experiment: Gametocytocidal ATP bioluminescence assay (single point 5 μM and 1 μM, dose-response); type: cell-based, Plasmodium falciparum; conditions: for IC50: Plasmodium falciparum
[4] = tested on: luciferase reaction (BacTiter-Glo); experiment: Interference assay (inhibition of the BacTiter-Glo luciferase reaction); type: biochemical; set-up: concentration or dose not given beside the values; conditions: ATP interference assay
Description: To discard possible false-positive results, we performed an interference assay in parallel. […] […]. The ATP solution was made by dissolving ATP powder (ATP standard from the ATPlite 1 step assay kit, reference 6016731, Perkin Elmer) in culture medium. The positive control used was the Luciferase Inhibitor I Calbiochem (Merck, 119113) at 100 μM.

[5] = Cytotoxicity in HepG2 cells (intracellular ATP, ATPlite, 48 h); type: cell-based, human; conditions: human, HepG2 cells; IC50 per ratio column head; unit inferred; read-out: Cytotoxicity in HepG2
HepG2 cells = experiment: as above; type: cell-based, human; conditions: IC50 HepG2 divided by IC50 P. falciparum gametocytes
adenosine A3 receptor = tested on: adenosine A3 receptor; set-up: method as in TCAMS annotation; conditions: target annotation in TCAMS; ref TCAMS annotation; cited from earlier work
[6] = tested on: P. falciparum stage V gametocytes; set-up: BacTiter-Glo ATP luminescence viability of purified stage V gametocytes in 384-well plates, per cent inhibition versus DMSO; conditions: 48 h, 5 µM; inhibitor
[7] = P. falciparum asexual stages, read-out: IC50 (µM) Pf asexual stages
[8] = asexual stages, read-out: IC50 asexual
[9] = P. falciparum gametocytes, average, read-out: IC50 Pf Gametocytes average, IC50 (µM) average
[10] = sexual stages (gametocytes), dose-response, read-out: IC50 sexual

Row | % Control luminiscence [4] | SMILES | reported as inhibitors of KCa2.2 [1] | IC50 [2, 7] | IC50 [2, 8] | IC50 [3, 9] | IC50 at 48 h [5] | Ratio IC50 HepG2/IC50 P. falciparum (HepG2 cells) | Ratio IC50 HepG2/IC50 P. falciparum ([3]; IC50 HepG2 divided by IC50 P. falciparum gametocytes) | IC50 [3, 10] | reported as an adenosine A3 receptor ligand (adenosine A3 receptor) | IC50 ([3]; gametocytes (GC), value as repeated in the Clusters sheet, read-out: IC50 GC) | % Inhibition [6]
1 | 100% | Clc1ccc(Nc2nc(-c3ccccn3)cs2)nc1 [TCMDC-123885] | inhibitors | 0.77 µM | 0.774 µM | 0.67 µM |  |  |  |  |  |  | 
2 | 100% | O=C(Nc1nc(-c2ccccn2)cc2ccccc12)c1cccc(Cl)c1 [TCMDC-123886] |  | 0.75 µM | 0.754 µM | 0.5 µM | > 25000 nM | >50 | >50 | 0.497 µM | ligand |  | 
3 |  | Cc1ccnc(Nc2nc(-c3ccccn3)cs2)c1 [TCMDC-125769] | inhibitors | 1 µM | 0.998 µM | 0.0433 µM |  |  |  | 0.043 µM |  | 0.04 µM | 
4 |  | NC(=O)c1ccccc1Nc1nc(Nc2ccn[nH]2)ncc1Cl [TCMDC-134169] |  |  |  |  |  |  |  |  |  |  | -47.65%
5 |  | Cc1ccccc1N1CCN(c2ccc(C(=O)NC3CC3)cn2)CC1 [TCMDC-134578] |  |  |  |  |  |  |  |  |  |  | 39.4%
